Patent US6068987A, “Histone deacetylase as target for antiprotozoal agents” (Merck & Co., Inc., priority 1999, dated 2000)
pIC50: −log10 of the molar value.

Legend:
[1] = test system: histone deacetylase (E. tenella oocyst S100 lysate); test: Competitive binding assay with 3H-N-desmethoxyapicidin, E. tenella S100 lysate; conditions: for selectivity for E. tenella over chicken liver lysate in binding assay: E. tenella versus host (chicken liver) lysate
Method: E. tenella oocysts. Approximately 2×10^9 E. Tenella oocysts are suspended in 5 ml of PBS/0.1 mM PMSF, 4 mls of an equal mixture (vol/vol) of 4.0 and 1.0 mm glass beads is added. The glass bead-oocyst mixture is then shaken for 20 minutes to cause disruption of the oocysts. The efficiency of breakage is checked microscopically. The resulting homogenate is separated from the glass beads and centrifuged at 3000×g for 10 min. The supernatant is then subjected to an additional centrifugation at 100,000 g for 1 hr. The pellet is discarded and the supernatant, referred to as the E. Tenella S100 fraction, is retained for binding assays. After estimating the protein concentration, the supernatant (S100) is aliquoted and frozen at -80° C.
(§1) Each assay tube contains a final volume of 1 ml with 1.3 ng/ml of ^3 H-N-desmethoxyapicidin, 150-200 μg of the appropriate S100 supernatant and concentrations of potential HDA inhibitors from 0.001-10 μg/ml.
(§2) (i) labeled substrate. 2-^3 H-N-desmethoxyapicidin (18.69 mCi/mg) is diluted 1:100 in ethanol, and 2 μl added per 1 ml of 50 mM HEPES pH 7.4 with 0.05% Triton®-X100 (HEPES/Triton) is added. This provides 1.3 ng 2-^3 H-N-desmethoxyapicidin /ml of assay (54,000 DPM/ml.)
(§3) (ii) potential HDA inhibitors. The stocks of the test compounds are made up to 2 mg/ml dimethylsulfoxide (DMSO). The stock solution is diluted to 1000, 100, 10, 1 and 0.1 μg/ml in ethanol where a full titration is required. Ethanol is used as a negative control, a 100 μg/ml solution of unlabeled N-desmethoxyapicidin is used as a positive control. Six μl of the test compound solution, the positive and negative controls are used for the assay.
(§4) (iii) supernatant from (a). The S100 sample is diluted to a concentration of 3.0 mg protein/ml (chick liver) or 4 mg protein/ml (parasite) in the HEPES/Triton® buffer. Fifty μl is used for the assay.
(§5) Stock solutions of potential HDA inhibitors (ii) are diluted into 50 mM HEPES/Triton® buffer to achieve a final concentration of test compound in the range of […]. ^3 H-N-desmethoxyapicidin is added to a final concentration of 1.3 ng/ml. 50 μl of parasite or chick liver S100 solution (150-200 μg) is added to each tube. The assay mixture is incubated for 1 hr at 25° C. and then aspirated through Whatman GF/B filters impregnated with polyethylenimine (filters prepared in advance by soaking in 2 ml of polyethylenimine per 330 mls water at room temp for 1 hour). Assay tubes were rinsed 3 times with 1-2 mls of HEPES/Triton® and aspirated through the same filter. The filter is then dried and counted in scintillant.

[2] = molecular target: histone deacetylase (chicken liver S100 lysate); test: Competitive binding assay with 3H-N-desmethoxyapicidin, chick liver S100 lysate; conditions: for pIC50: displacement of 3H-N-desmethoxyapicidin, chick liver S100
Method: Chick Liver. Livers from 3-5 three week old chickens are collected, rinsed in ice cold phosphate buffered saline (pH 7.4), diced into small pieces and rinsed again 3-4 times with ice cold 50 mM N-2-hydroxyethylpiperazine-N'-2-ethanesulfonic acid (HEPES) (pH 7.4) containing 0.1 mM phenylmethanesulfonyl fluoride (PMSF). The tissue is then resuspended in HEPES buffer, homogenized in a polytron homogenizer and centrifuged at 3000×g for 10 min. The supernatant is then subjected to an additional 100,000 g centifugation for 1 hour. The pellet and the floating layer of lipid are discarded and the supernatant, referred to as the chick liver S100 fraction, is retained for binding assays. After estimating the protein concentration, the supernatant (S100) is aliquoted and frozen at -80° C.
as §1, §2, §3, §4, §5

HeLa cell histones = test: Histone acetylation state in HeLa cells (AUT gel electrophoresis); format: cell-based, human; conditions: HeLa cells treated 4 hrs, FIG. 1, relative to untreated cells
Method: About 2×10^7 HeLa cells growing at 37 C were treated with various compounds in the standard tissue culture medium (MEM containing 10% fetal calf serum) for 4 hrs. Cells were then removed from the flask by scraping in PBS in a total volume of about 10 mls. The cells were washed twice in PBS and resuspended in about 3 mls lysis buffer (Lysis buffer; 0.45% Nonidet® P-40, 10 mM tris, 10 mM NaCl, 5 mM MgCl, 0.1 mM EGTA, 0.1 mM PMSF). The suspension was mixed by vortexing for 10 seconds, incubated on ice for 15 minutes and nuclei were pelleted by centrifugation through a 1 ml cushion of 30% sucrose in lysis buffer at 1300×g for 10 minutes. The supernatant was discarded and the nuclei were then resuspended in 1.0 ml water. H2 SO4 was added to a final concentration of 0.4M and the nuclear suspension was incubated on ice for 30 min. and then pelleted by centrifugation at 13,000×g for 10 miunutes. […]
Acid urea triton (AUT) polyacrylarnide gels were performed according to the methods of Alfageme et al (1974) J. Biol. Chem. 249, 3729, with modifications as described in Lennox and Cohen (Methods in Enzymology, 170, 532-549). […] Gels were either stained with Coomassie Brilliant Blue R in 7% acetic acid, 20% methanol and then destained in 7% acetic acid and 20% methanol, or treated with Enlightening (from New England Nuclear), dried and radiolabel detected by fluorography.

P. falciparum histones = test: Histone acetylation state in P. falciparum (14C acetate labeling, AUT gel); format: cell-based, Plasmodium falciparum; conditions: infected red blood cells, 14C sodium acetate, 2 hours, FIG. 2
Method: Acid urea triton (AUT) polyacrylarnide gels were performed according to the methods of Alfageme et al (1974) J. Biol. Chem. 249, 3729, with modifications as described in Lennox and Cohen (Methods in Enzymology, 170, 532-549). For optimal resolution of HeLa cell and Plasmodium falciparum histones the separation gel contained 7.5M urea, 12% acrylamide, 0.38% Triton® X 100, 0.08% bis acrylamide, and 0.87M acetic acid. The loading gels contained 7.5M urea, 0.37% Triton® X 100, 6% acrylamide, 0.04% bis acrylamide and 0.87M acetic acid. Gels were run in 1M acetic acid. Gels were pre-electrophoresed at 350V for 1 hour and run at 450 V for 3.5 hours. Gels were either stained with Coomassie Brilliant Blue R in 7% acetic acid, 20% methanol and then destained in 7% acetic acid and 20% methanol, or treated with Enlightening (from New England Nuclear), dried and radiolabel detected by fluorography.
Approximately 1×10^9 P. falciparum infected red blood cells (about 60% parasitized) were resuspended in 10 ml of RPMI 1640 containing various concentrations of test compounds and 250 μCi^14 C sodium acetate and incubated at 37° C. for 2 hours. The cells were then washed 3 time with PBS and histones were prepared as described below.
Histones were prepared according to the method of Cary et al (1994) Parasitology Research, 80, 255-258. […]

E. tenella = test: In vitro antiparasitic activity against E. tenella; format: cell-based, Eimeria tenella
From the text: ^(1) Generally following the procedure described in Crane, Schmatz, Stevens, Habbersett and Murray. Eimeria tenella: in vitro development in irradiated bovine kidney cells.(1984) Parasitology 88: 521-530.

[3] = test system: Eimeria HDAase (histone deacetylase); test: Histone deacetylase inhibition assay (Assay 1), E. tenella extract; format: biochemical, Eimeria tenella
Method: (§6) The standard assay contained in a total volume of 40 μL: 400 nmol HEPES-sodium, pH 7.4, 100 pmol of the substrate [AcGly-Ala-Lys(ε-^14 C-Ac)-Arg-His-Arg-Lys(ε-^14 C-Ac)-ValNH2 ] (see Kervabon et al (1979) FEBS Letters 106: 93-96) having a specific activity of approx. 114 mCi/mmol, and a source of histone deacetylase (HDAase) activity. The amount of HDAase added was chosen such that ≤20% of the substrate was consumed during the assay. The reaction was initiated by enzyme addition and allowed to proceed for 60 min at 41°. At 60 min, the reaction was terminated by the addition of a 50% slurry of Amberlite AG 50 W×4 cation exchange resin, sodium form (200-400 mesh) in 25 mM sodium acetate buffer, pH 4.2 (200 μL). The resin binds both remaining substrate and the (partially) deacetylated peptidyl products. The quenched reaction was then incubated for at least 30 min at 25° with occassional mixing, diluted with additional 25 mM sodium acetate buffer, pH 4.2 (760 μL; final volume 1000 μL), incubated for a minimum of an additional 30 min at 25° with occassional mixing, and then centrifuged at 10,000×g for 1 min. An aliquot of the supernatant (800 μL) containing the enzymatically released ^14 C-acetate was removed, mixed with Aquasol 2 liquid scintillation counter (LSC) cocktail (10 mL), and counted in a Beckman model LS-5801 LSC. […]

P. falciparum = test: In vitro antiparasitic activity against P. falciparum; format: cell-based, Plasmodium falciparum
From the text: ^(2) Generally following the procedure described in Desjardins et al, "Quantitative Assessment of Antimalarial Activity In Vitro by a Semiautomated Microdilution Technique" Antimicrobial Agents and Chemotherapy, 1979, 16:710-718.

[4] = test system: histone deacetylase (chicken liver extracts); test: Histone deacetylase inhibition assay (Assay 1), chicken liver extract; format: biochemical
Method: as §6

SMILES | selectivity for E. tenella over chicken liver lysate in binding assay [1] | pIC50 [2] | hyperacetylation of HeLa cell histones (shift in histone gel profile) (HeLa cell histones) | hyperacetylation of P. falciparum histones (P. falciparum histones) | also measured
CCC(=O)CCCCC[C@@H]1NC(=O)[C@H]2CCCCN2C(=O)[C@H](C(C)CC)NC(=O)[C@H](c2cn(OC)c3ccccc3c2=O)NC1=O (stereo partly shown) [Compound IIA] | selective | < 6.00 | – | – | –
CCC(=O)CCCCC[C@@H]1NC(=O)[C@H]2CCCCN2C(=O)[C@H](C(C)CC)NC(=O)[C@H](c2c[nH]c3ccccc3c2=O)NC1=O (stereo partly shown) [Compound IIB] | selective | < 6.00 | – | – | –
CCC(=O)CCCCC[C@@H]1NC(=O)[C@H]2CCCCN2C(=O)[C@H]([C@@H](C)CC)NC(=O)[C@H](Cc2cn(OC)c3ccccc23)NC1=O [Compound Ia, Apicidin] | – | – | cause a distinct shift in the histone gel profiles | cause hyperacetylation | –
CC(/C=C/C(=O)O)=C\[C@@H](C)C(=O)c1ccc(N(C)C)cc1 [trichostatic acid] | – | < 6.00 | – | – | activity against E. tenella (in words) (E. tenella): not active; activity in enzyme inhibition assay (in words), E. tenella extract [3]: inactive; activity against P. falciparum (in words) (P. falciparum): not active; activity in binding assay (in words), E. tenella lysate [1]: no activity; pIC50 ([1]; displacement of 3H-N-desmethoxyapicidin, E. tenella S100): < 6.00; activity in binding assay (in words), chicken liver lysate [2]: no activity; activity in enzyme inhibition assay (in words), chicken liver extract [4]: inactive
CC(/C=C/C(=O)NO)=C\[C@@H](C)C(=O)c1ccc(N(C)C)cc1 [trichostatin] | – | – | cause a distinct shift in the histone gel profiles | cause hyperacetylation | –
